In the supplement of paper PMC10627819:

Experiments:
S. pneumoniae D39V [1] = experiment: fitness (endpoint OD595 vs no drug) (fraction); higher = more growth
How it was run: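 Fitness was measured as bacterial growth in 384-well plates inoculated at OD595 0.01 (30 µl, or 55 µl for S. pneumoniae). Media were TSB, LB Lennox or CY, at 37 °C. OD595 was read every 30 min for 14 h and background-subtracted against the first reading. Fitness is OD595 at the transition into stationary phase divided by the robust mean of no-drug control wells, capped at 1.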

B. subtilis 168 = experiment: Bliss interaction score (quartile over a dose matrix) (fitness difference); higher = more antagonism (negative = synergy)
How it was run: (§1)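 Quartiles summarise the Bliss score over technical, biological and donor/recipient replicates, where the score is observed minus expected fitness under a product model. Expected fitness uses single-drug values inferred from combination data. Fitness is OD595 at entry into stationary phase over the plate's robust no-drug mean, capped at 1.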

S. aureus DSM 20231 = experiment: as above
How it was run: as §1

S. pneumoniae D39V [2] = experiment: as above
How it was run: as §1

S. aureus Newman = experiment: as above
How it was run: as §1
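Throughout, for Bliss interaction score (quartile over a dose matrix): first quartile when negative (synergy) and third quartile when positive (antagonism).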

Cc1ncc([N+](=O)[O-])n1CCO [Metronidazole] + CO[C@H]1/C=C/O[C@@]2(C)Oc3c(C)c(O)c4c(O)c(c(/C=N/N5CCN(C)CC5)c(O)c4c3C2=O)NC(=O)/C(C)=C\C=C\[C@H](C)[C@H](O)[C@@H](C)[C@@H](O)[C@@H](C)[C@H](OC(C)=O)[C@@H]1C [Rifampicin]
fitness, S. pneumoniae D39V [1]
Conditions | first compound 1.073 µg/mL | first compound 1.25 µg/mL | first compound 2.145 µg/mL | first compound 2.5 µg/mL | first compound 4.29 µg/mL | first compound 5 µg/mL
partner 0.05 µg/mL | 0.881 | 0.81 | 0.907 | 0.83 | 0.84 | 0.839
partner 0.1 µg/mL | 0.577 | – | 0.617 | – | 0.677 | –
partner 0.2 µg/mL | 0.302 | – | 0.35 | – | – | –

fitness, S. pneumoniae D39V [1], one replicate
Conditions | first compound 1.25 µg/mL | first compound 2.5 µg/mL | first compound 5 µg/mL
partner 0.025 µg/mL | 0.897 | 0.907 | 0.892
partner 0.2 µg/mL | 0 | 0 | 0

Conditions | Bliss interaction score
B. subtilis 168 | 0.0335
S. aureus DSM 20231 | -0.0591
S. aureus Newman | 0.0408
S. pneumoniae D39V [2] | 0.104

CO/N=C(\C(=O)N[C@@H]1C(=O)N2C(C(=O)O)=C(COC(C)=O)CS[C@H]12)c1csc(N)n1 [Cefotaxime] + Clc1ccc(COC(Cn2ccnc2)c2ccc(Cl)cc2Cl)c(Cl)c1 [Miconazole]
fitness, S. pneumoniae D39V [1]
Conditions | partner 1.073 µg/mL | partner 1.25 µg/mL | partner 2.145 µg/mL | partner 2.5 µg/mL | partner 4.29 µg/mL | partner 5 µg/mL
first compound 0.0018 µg/mL | ≥ 1 | 0.919 | 0.967 | 0.96 | 0.94 | 0.936
first compound 0.0035 µg/mL | ≥ 1 | 0.866 | 0.907 | 0.9 | 0.866 | 0.911
first compound 0.007 µg/mL | 0.797 | 0.749 | – | 0.789 | 0.613 | 0.796

Conditions | Bliss interaction score
B. subtilis 168 | 0.104
S. aureus DSM 20231 | -0.0534
S. aureus Newman | 0.0393
S. pneumoniae D39V [2] | -0.0628

CO/N=C(\C(=O)N[C@@H]1C(=O)N2C(C(=O)O)=C(COC(C)=O)CS[C@H]12)c1csc(N)n1 [Cefotaxime] + CO[C@H]1/C=C/O[C@@]2(C)Oc3c(C)c(O)c4c(O)c(c(/C=N/N5CCN(C)CC5)c(O)c4c3C2=O)NC(=O)/C(C)=C\C=C\[C@H](C)[C@H](O)[C@@H](C)[C@@H](O)[C@@H](C)[C@H](OC(C)=O)[C@@H]1C [Rifampicin]
fitness, S. pneumoniae D39V [1]
Conditions | first compound 0.0018 µg/mL | first compound 0.0035 µg/mL | first compound 0.007 µg/mL
partner 0.025 µg/mL | 0.96 | 0.964 | 0.798
partner 0.1 µg/mL | – | – | 0.159

S. pneumoniae D39V [1], partner 0.2 µg/mL, one replicate
Conditions | fitness
first compound 0.0018 µg/mL | 0
first compound 0.0035 µg/mL | 0
first compound 0.007 µg/mL | 0

Conditions | Bliss interaction score
B. subtilis 168 | 0.0961
S. aureus DSM 20231 | 0.0866
S. aureus Newman | 0.0597
S. pneumoniae D39V [2] | -0.0838

O=C(O)c1cn(C2CC2)c2cc(N3CCNCC3)c(F)cc2c1=O [Ciprofloxacin] + CC[C@H]1OC(=O)[C@H](C)[C@@H](O[C@H]2C[C@@](C)(OC)[C@@H](O)[C@H](C)O2)[C@H](C)[C@@H](O[C@@H]2O[C@H](C)C[C@H](N(C)C)[C@H]2O)[C@](C)(OC)C[C@@H](C)C(=O)[C@H](C)[C@@H](O)[C@]1(C)O [Clarithromycin]
fitness, S. pneumoniae D39V [1], one replicate
Conditions | partner 0.007812 µg/mL | partner 0.01562 µg/mL | partner 0.03125 µg/mL | partner 0.0625 µg/mL | partner 0.125 µg/mL | partner 0.25 µg/mL
first compound 0.125 µg/mL | 0.839 | 0.844 | 0.627 | – | – | –
first compound 0.25 µg/mL | 0.742 | 0.746 | 0.536 | 0.349 | 0.17 | 0.0141
first compound 0.5 µg/mL | 0.472 | 0.524 | 0.398 | – | – | –

fitness, S. pneumoniae D39V [1]
Conditions | partner 0.0625 µg/mL | partner 0.07 µg/mL | partner 0.125 µg/mL | partner 0.14 µg/mL | partner 0.25 µg/mL | partner 0.28 µg/mL
first compound 0.125 µg/mL | 0.473 | 0.151 | 0.246 | 0.0833 | 0.0576 | 0.0594
first compound 0.25 µg/mL | – | 0.166 | – | 0.0864 | – | 0.0284
first compound 0.5 µg/mL | 0.374 | 0.127 | 0.191 | 0.0639 | 0.0761 | 0.0531

Conditions | Bliss interaction score
B. subtilis 168 | 0.183
S. aureus DSM 20231 | 0.0952
S. aureus Newman | 0.0708
S. pneumoniae D39V [2] | -0.0773

O=C(O)c1cn(C2CC2)c2cc(N3CCNCC3)c(F)cc2c1=O [Ciprofloxacin] + C[C@@H](O)[C@H]1C(=O)N2C(C(=O)O)=C(SCCNC=N)C[C@H]12 [Imipenem]
fitness, S. pneumoniae D39V [1]
Conditions | partner 0.005 µg/mL | partner 0.0065 µg/mL | partner 0.01 µg/mL | partner 0.013 µg/mL | partner 0.02 µg/mL | partner 0.026 µg/mL
first compound 0.125 µg/mL | 0.956 | 0.96 | 0.959 | 0.893 | 0.933 | 0.837
first compound 0.25 µg/mL | – | 0.878 | – | 0.847 | – | 0.774
first compound 0.5 µg/mL | – | 0.531 | – | 0.583 | – | 0.529

S. pneumoniae D39V [1], first compound 0.25 µg/mL, one replicate
Conditions | fitness
partner 0.005 µg/mL | 0.835
partner 0.01 µg/mL | 0.824
partner 0.02 µg/mL | 0.881

Conditions | Bliss interaction score
B. subtilis 168 | -0.149
S. aureus DSM 20231 | 0.0301
S. aureus Newman | 0.016
S. pneumoniae D39V [2] | 0.0446

C[C@H]1c2cccc(O)c2C(=O)C2=C(O)[C@]3(O)C(=O)C(C(N)=O)=C(O)[C@@H](N(C)C)[C@@H]3[C@@H](O)[C@@H]21 [Doxycycline] + O=C1CN(/N=C/c2ccc([N+](=O)[O-])o2)C(=O)N1 [Nitrofurantoin]
fitness, S. pneumoniae D39V [1], one replicate
Conditions | first compound 0.003875 µg/mL | first compound 0.00775 µg/mL | first compound 0.0155 µg/mL | first compound 0.031 µg/mL | first compound 0.062 µg/mL
partner 2 µg/mL | ≥ 1 | 0.943 | – | 0.77 | 0.68
partner 4 µg/mL | 0.993 | 0.953 | – | 0.809 | 0.681
partner 5.14 µg/mL | – | – | 0.875 | 0.894 | 0.828
partner 8 µg/mL | 0.766 | 0.824 | – | 0.8 | 0.741

fitness, S. pneumoniae D39V [1]
Conditions | partner 1.285 µg/mL | partner 2 µg/mL | partner 2.57 µg/mL | partner 4 µg/mL | partner 8 µg/mL
first compound 0.0155 µg/mL | 0.899 | 0.9 | 0.944 | 0.898 | 0.877
first compound 0.031 µg/mL | 0.896 | – | 0.92 | – | –
first compound 0.062 µg/mL | 0.837 | – | 0.869 | – | –

Conditions | Bliss interaction score
B. subtilis 168 | 0.0854
S. aureus DSM 20231 | -0.0256
S. aureus Newman | -0.0329
S. pneumoniae D39V [2] | 0.0703

C[C@@H]1O[C@@H]1P(=O)(O)O [Fosfomycin] + Clc1ccc(COC(Cn2ccnc2)c2ccc(Cl)cc2Cl)c(Cl)c1 [Miconazole]
fitness, S. pneumoniae D39V [1]
Conditions | partner 1.073 µg/mL | partner 1.25 µg/mL | partner 2.145 µg/mL | partner 2.5 µg/mL | partner 4.29 µg/mL | partner 5 µg/mL
first compound 1.25 µg/mL | 0.988 | 0.946 | 0.967 | 0.946 | 0.879 | 0.968
first compound 2.5 µg/mL | 0.926 | 0.905 | 0.879 | 0.933 | 0.789 | 0.929
first compound 5 µg/mL | 0.758 | 0.769 | 0.7 | 0.753 | 0.678 | 0.776

Conditions | Bliss interaction score
B. subtilis 168 | -0.0714
S. aureus DSM 20231 | 0.0796
S. aureus Newman | 0.103
S. pneumoniae D39V [2] | 0.0499

C[C@H]1c2cccc(O)c2C(=O)C2=C(O)[C@]3(O)C(=O)C(C(N)=O)=C(O)[C@@H](N(C)C)[C@@H]3[C@@H](O)[C@@H]21 [Doxycycline] + CO[C@H]1/C=C/O[C@@]2(C)Oc3c(C)c(O)c4c(O)c(c(/C=N/N5CCN(C)CC5)c(O)c4c3C2=O)NC(=O)/C(C)=C\C=C\[C@H](C)[C@H](O)[C@@H](C)[C@@H](O)[C@@H](C)[C@H](OC(C)=O)[C@@H]1C [Rifampicin]
S. pneumoniae D39V [1], one replicate
Conditions | fitness
first compound 0.003875 µg/mL, partner 0.05 µg/mL | 0.802
first compound 0.003875 µg/mL, partner 0.1 µg/mL | 0.36
first compound 0.003875 µg/mL, partner 0.2 µg/mL | 0.109
first compound 0.00775 µg/mL, partner 0.05 µg/mL | 0.864
first compound 0.00775 µg/mL, partner 0.1 µg/mL | 0.494
first compound 0.00775 µg/mL, partner 0.2 µg/mL | 0.207
first compound 0.0155 µg/mL, partner 0.025 µg/mL | 0.912
first compound 0.031 µg/mL, partner 0.025 µg/mL | 0.927
first compound 0.062 µg/mL, partner 0.025 µg/mL | 0.825

fitness, S. pneumoniae D39V [1]
Conditions | first compound 0.0155 µg/mL | first compound 0.031 µg/mL | first compound 0.062 µg/mL
partner 0.05 µg/mL | 0.863 | 0.861 | –
partner 0.1 µg/mL | – | – | 0.307
partner 0.2 µg/mL | 0.199 | 0.113 | 0.0818

Conditions | Bliss interaction score
B. subtilis 168 | -0.253
S. aureus DSM 20231 | -0.0196
S. aureus Newman | -0.0119
S. pneumoniae D39V [2] | -0.0813

C[C@H]1c2cccc(O)c2C(=O)C2=C(O)[C@]3(O)C(=O)C(C(N)=O)=C(O)[C@@H](N(C)C)[C@@H]3[C@@H](O)[C@@H]21 [Doxycycline] + C/C(=C\C(=O)OCCCCCCCCC(=O)O)C[C@@H]1OC[C@H](C[C@@H]2O[C@H]2[C@@H](C)[C@H](C)O)[C@@H](O)[C@H]1O [Pseudomonic acid]
fitness, S. pneumoniae D39V [1], one replicate
Conditions | partner 0.03 µg/mL | partner 0.06 µg/mL | partner 0.12 µg/mL
first compound 0.003875 µg/mL | 0.973 | 0.887 | 0.585
first compound 0.00775 µg/mL | 0.943 | 0.839 | 0.614

fitness, S. pneumoniae D39V [1]
Conditions | first compound 0.0155 µg/mL | first compound 0.031 µg/mL | first compound 0.062 µg/mL
partner 0.03 µg/mL | 0.993 | 0.937 | 0.821
partner 0.06 µg/mL | 0.878 | 0.845 | 0.857
partner 0.12 µg/mL | 0.604 | 0.608 | 0.562

Conditions | Bliss interaction score
B. subtilis 168 | -0.0363
S. aureus DSM 20231 | -0.0104
S. aureus Newman | -0.0168
S. pneumoniae D39V [2] | 0.0875
